For data set [1], the system named is rats. Kind of data set: Hypnotic action on intraperitoneal administration (period of absence of the righting reflex, duration of sleep). Format: in vivo, female Sprague-Dawley rats. The following applies: for ED (60 min sleep): Rattus norvegicus, 1 h, dose which causes a 60 minute period of sleep, regression analysis. How it is done:
To investigate the hypnotic action, these substances are administered intraperitoneally to groups of 4-8 female Sprague-Dawley rats each weighing 145-200 g. The period of absence of the righting reflex (ie. the duration of sleep) served as a criterion of the hypnotic action.
Linear relationships exist between the logarithms of the administered doses (mg/kg) and the logarithms of the period of sleep (min), from which relationships the dose which causes a 60 minute period of sleep is calculated, as the ED 60 min, by regression analysis.

A further data set is described as follows: in vivo. The following applies: rat, ip; for selectivity ratio: Therapeutic range. The method, then:
(§1) The acute toxicity is determined on groups of 10 rats of the same strain as above, again for intraperitoneal administration.
(§2) The comparison substance used is the well known hypnotic Ethinamate (1-ethynyl-cyclohexyl carbamate).

For data set [2] the following is noted: German Laid-Open Application DOS No. 2,346,305; cited from earlier work.
Data set [3] relates to rats. The data set is described as follows: in vivo. The following applies: rat, ip, 681 mg/kg. The method, then:
as §1, §2

In the case of `CC(=O)[C@]1(COC(=O)NC2CC2)C[C@@H]2C=C[C@H]1C2` (relative stereo) [Example 109, exo-2-(N-cyclopropylcarbamyloxymethyl)-norborn-5-en-2-yl methyl ketone], the ED (60 min sleep) with rats [1] (ip, intraperitoneal, rats) came out at 27.2 mg/kg. In addition, the “R.A. (relative activity)” value in the data set on rats [1] (rat, in vivo, ip) amounted to 2.55. For the same compound, in “in vivo”, the LD50 at 6 h stood at 187 mg/kg and the selectivity ratio was found to be 6.9.

Take `CC(=O)[C@]1(COC(=O)NC(C)C)C[C@@H]2CC[C@H]1C2` (relative stereo) [Example 36, exo-2-(N-isopropylcarbamyloxymethyl)-norborn-2-yl methyl ketone]: the ED (60 min sleep) with rats [1] (ip, intraperitoneal, rats) came to 37.6 mg/kg. Besides, the “R.A. (relative activity)” value in the data set on rats [1] (rat, in vivo, ip) is recorded as 1.84. Besides, in “in vivo”, the LD50 at 6 h was found to be 464 mg/kg and the selectivity ratio was found to be 12.3.

With `CNC(=O)OC1OC(=O)C2C3C=CC(C3)C12` (stereo not shown) [4-oxa-5-(5-methylcarbamyloxy)-tricyclo[5,2,1,0^2,6]-dec-8-en-3-one], the “Analgesic properties (in words), prior art” value in data set [2] is reported as “exhibit analgesic properties”.

`CC(=O)[C@]1(COC(=O)NC(C)C2CC2)C[C@@H]2C=C[C@H]1C2` (stereo partly drawn) [Example 98, exo-2-[N-(1-cyclopropylethyl)-carbamyloxymethyl]-norborn-5-en-2-yl methyl ketone] yielded an ED (60 min sleep) in the data set on rats [1] (ip, intraperitoneal, rats) of 30.3 mg/kg. Further, the “R.A. (relative activity)” value in the data set on rats [1] (rat, in vivo, ip) turned out to be 2.29. Also, the Mortality rate with rats [3] is 0/10. For the same compound, in “in vivo”, the LD50 at 6 h was at least 681 mg/kg and the selectivity ratio was at least 22.5.

The compound `CC(=O)[C@]1(COC(=O)NCC(C)C)C[C@@H]2C=C[C@H]1C2` (relative stereo) [Example 87, exo-2-(N-(2-methylpropyl)-carbamyloxymethyl)-norborn-5-en-2-yl methyl ketone] showed an ED (60 min sleep) with rats [1] (ip, intraperitoneal, rats) of 46.7 mg/kg. In addition, the “R.A. (relative activity)” value in the data set with rats [1] (rat, in vivo, ip) was 1.48. Besides, in “in vivo”, the LD50 at 6 h was found to be 482 mg/kg and the selectivity ratio is 10.3.

Turning to `CCCNC(=O)OCC1(C(C)=O)CC=CCC1` (stereo not shown) [Example 52, 1-(N-propylcarbamyloxymethyl)-cyclohex-3-enyl methyl ketone], in the data set with rats [1] (ip, intraperitoneal, rats), the ED (60 min sleep) turned out to be 28.5 mg/kg. Moreover, the “R.A. (relative activity)” value with rats [1] (rat, in vivo, ip) is recorded as 2.43. Also, in the data set “in vivo”, the LD50 at 6 h is 215 mg/kg and the selectivity ratio was 7.5.

As to `CC(=O)[C@]1(COC(=O)NC2CCCC2)C[C@@H]2C=C[C@H]1C2` (relative stereo) [Example 15, exo-2-(N-cyclopentylcarbamyloxymethyl)-norborn-5-en-2-yl methyl ketone], in the data set with rats [1] (ip, intraperitoneal, rats), the ED (60 min sleep) came out at 46.4 mg/kg. The “R.A. (relative activity)” value in the data set on rats [1] (rat, in vivo, ip) came out at 1.49. In the data set “in vivo”, the LD50 at 6 h was 247 mg/kg and the selectivity ratio is 5.3.

Consider `C#CC1(OC(N)=O)CCCCC1` [Ethinamate, 1-ethynyl-cyclohexyl carbamate, reference compound], for which the “R.A. (relative activity)” value in the data set on rats [1] (Ethinamate = 1.00, intraperitoneal, rats) was found to be 1.00. In addition, the ED (60 min sleep) with rats [1] (ip, intraperitoneal, rats) is 69.3 mg/kg.

For `CCCNC(=O)OC[C@@]1(C(C)=O)C[C@@H]2C=C[C@H]1C2` (relative stereo) [Example 4, exo-2-(N-n-propylcarbamyloxymethyl)-norborn-5-en-2-yl methyl ketone], the ED (60 min sleep) in the data set on rats [1] (ip, intraperitoneal, rats) was determined as 21.5 mg/kg. The “R.A. (relative activity)” value in the data set with rats [1] (rat, in vivo, ip) is listed as 3.22. For the same compound, in the data set “in vivo”, the LD50 at 6 h amounted to 392 mg/kg and the selectivity ratio amounted to 18.2.

The compound `CC(=O)[C@]1(COC(=O)NC(C)C)C[C@@H]2C=C[C@H]1C2` (relative stereo) [Example 7, exo-2-(N-isopropylcarbamyloxymethyl)-norborn-5-en-2-yl methyl ketone] had an ED (60 min sleep) with rats [1] (ip, intraperitoneal, rats) of 20.7 mg/kg. Also, the “R.A. (relative activity)” value with rats [1] (rat, in vivo, ip) was found to be 3.35. In addition, in “in vivo”, the LD50 at 6 h is 137 mg/kg and the selectivity ratio came to 6.6.

In the case of `CCC(C)NC(=O)OC[C@@]1(C(C)=O)C[C@@H]2C=C[C@H]1C2` (stereo partly drawn) [Example 88, exo-2-(N-but-2-yl-carbamyloxymethyl)-norborn-5-en-2-yl methyl ketone], the ED (60 min sleep) in the data set on rats [1] (ip, intraperitoneal, rats) was 30.8 mg/kg. The “R.A. (relative activity)” value in the data set on rats [1] (rat, in vivo, ip) is reported as 2.25. Also, in “in vivo”, the LD50 at 6 h was 150 mg/kg and the selectivity ratio was found to be 4.9.

Source of the values: patent US4335138A, “Novel carbamates, their preparation, and pharmaceutical formulations containing these compounds” (BASF Aktiengesellschaft, priority 1979, dated 1982).
